Measured values taken from publication PMC4759478, “Novel EGFR inhibitors attenuate cardiac hypertrophy induced by angiotensin II” (Journal of Cellular and Molecular Medicine, 2016).

Tests used:
[1] = system: AngII-induced cardiac hypertrophy in C57BL/6 mice; assay: Echocardiography and heart weight/bodyweight in AngII-induced cardiac hypertrophy mice; type: in vivo, mouse; conditions: AngII-treated C57BL/6 mice, 20 mg/kg/day for 2 weeks, n = 7
Method: Cardiac hypertrophy was induced in 6‐week‐old C57BL/6 mice by a […] subcutaneous injection of AngII (0.5 mg/kg/2 days for 2 weeks) in phosphate buffer (pH 7.2), as described previously 18. Mice in vehicle control group and Ang II group received 1% CMC‐Na solution alone in the same schedule as compound‐treated groups. Animals were killed under sodium pentobarbital anaesthesia. After mice was killed, heart tissues were embedded in 4% paraformaldehyde for pathological analysis and/or snap‐frozen in liquid nitrogen for gene and protein expression analysis. In addition, the blood was collected from the right ventricle using a heparin‐containing syringe with a needle at the time of death.
At the day before the sacrifice, Doppler analysis was performed to ensure that pathologic cardiac hypertrophy was induced. The internal diameter and wall thickness of left ventricle (LV) were assessed by echocardiography 19. Hearts of the killed mice were dissected and weighted to compare heart weight/bodyweight (mg/kg) ratios in mice. Mice was anaesthetized with isoflurane, echocardiography was performed by SONOS 5500 ultrasound (Philips Electronics, Amsterdam, the Netherlands) with a 15‐MHz linear array ultrasound transducer. The LV was assessed in both parasternal long‐axis and short‐axis views at a frame rate of 120 Hz. End‐systole or end‐diastole was defined as the phase in which the smallest or largest area of LV respectively. LV posterior wall (LVPW) and LV internal dimension (LVID) were measured from LV M‐model tracing with a sweep speed of 50 mm/sec. at the mid‐papillary muscle level.

[2] = system: EGFR signalling in H9c2 cells; conditions: 10 μM pre-treatment 2 hrs, EGF 100 ng/ml 15 min, Western blot
Method: (§1) Cells or heart tissues (30–50 mg) were lysated. […] Each PVDF membrane was incubated with specific antibodies.

[3] = system: EGFR signalling in H9c2 cells; assay: Ang II-induced EGFR/AKT/ERK phosphorylation in H9c2 cells (Western blot); type: cell-based, rat; conditions: Ang II 1 μM 15 min
Method: as §1

H9c2 cells = assay: EGF-induced hypertrophy of H9c2 cells (Western blot, RT-qPCR, immunofluorescence); type: cell-based, rat; conditions: pre-treatment 2 hrs (AG1478 10 μM; 542/543 1-10 μM), EGF 100 ng/ml 6 hrs (mRNA) or 12 hrs (MyHC)
Method: as §1

[4] = system: heart tissues of Ang II-treated C57BL/6 mice; assay: Heart histopathology, Masson fibrosis staining, RT-qPCR and immunohistochemistry in Ang II-treated mice; type: in vivo, mouse; conditions: Ang II 2 weeks
Method: Cardiac hypertrophy was induced in 6-week-old C57BL/6 mice by a […] subcutaneous injection of AngII (0.5 mg/kg/2 days for 2 weeks) in phosphate buffer (pH 7.2), as described previously 18. Mice in vehicle control group and Ang II group received 1% CMC-Na solution alone in the same schedule as compound-treated groups. Animals were killed under sodium pentobarbital anaesthesia. After mice was killed, heart tissues were embedded in 4% paraformaldehyde for pathological analysis and/or snap-frozen in liquid nitrogen for gene and protein expression analysis. In addition, the blood was collected from the right ventricle using a heparin-containing syringe with a needle at the time of death. […] Hearts were fixed in 4% paraformaldehyde and embedded in paraffin. The paraffin sections (5 μm) were stained with haematoxylin and eosin. To estimate the extent of damage, the specimen was observed under a light microscope (×200 amplification; Nikon, Tokyo, Japan). After deparaffinization and rehydration, 5 μm heart sections were treated with 3% H2O2 for 30 min. and with 1% BSA in PBS for 30 min. Slides were incubated overnight at 4°C with primary antibody (1:50) then incubated with secondary antibody (1:100; Santa Cruz Biotech) for 1 hr and DAB (A: B = 1: 20) for 5 min. at room temperature. At last the cell nuclei were stained with haematoxylin for 5 min., the sections were dehydrated and the images were viewed by a light microscope (×200 amplification; Nikon). Tissues were fixed in paraformaldehyde solution and embedded in paraffin. Paraffin sections (5 μm) of the heart tissues were stained with Masson to evaluate the fibrosis content. The stained sections then were viewed by light microscope (×200 amplification; Nikon).

[5] = system: primary neonatal rat cardiomyocytes; assay: Ang II-stimulated primary neonatal rat cardiomyocytes (Western blot, RT-qPCR); type: cell-based; conditions: 10 μM pre-treatment 2h, Ang II 1 μM 15min
Method: Cells were incubated with a DMEM medium that contained 5.5 mmol/L of D-glucose.
Figure S1. Effects of EGFR inhibitos in Ang II-stimulated primary neonatal rat cardiomyocytes. […] The cell lysates were collected and p-EGFR/EGFR (A) and p-AKT/p-ERK/GAPDH (B) were detected by Western Blot analysis. […] The cell lysates were collected and MyHC/GAPDH was detected by Western Blot analysis. […] The mRNA levels of ANP (D), β/α-MyHC (E), and SKA (F) were detected by RT-qPCR assay.

[6] = system: c-Src phosphorylation in H9c2 cells; assay: Ang II-induced c-Src phosphorylation in H9c2 cells (Western blot); type: cell-based, rat; conditions: 10 μM pre-treatment 2 hrs, Ang II 1 μM 15 min
Method: as §1

SMILES	HR [1]	HW (mg)/BW (g) [1]	LVIDd (diastole left ventricle internal dimension) [1]	LVIDs (systolic left ventricle internal dimension) [1]	LVPW (left ventricle posterior wall) [1]	VS [1]	activation of EGFR and downstream signalling (EGFR, AKT, ERK phosphorylation) induced by EGF [2]	activation of EGFR and downstream signalling (EGFR, AKT, ERK phosphorylation) induced by Ang II ([3]; AG1478 10 μM, 542/543 1, 2.5, 5 or 10 μM pre-treatment 2 hrs)	EGF-induced overexpression of pro-hypertrophic genes (MyHC, ANP, BNP, β/α-MyHC, SKA) (H9c2 cells)	cardiac EGFR signalling pathway activation (p-EGFR, p-ERK, p-AKT immunohistochemical staining) ([4]; 20 mg/kg)	Ang II-induced increases in heart expression of hypertrophic genes ANP, BNP, β/α-MyHC, SKA (RT-qPCR) ([4]; AG1478 20 mg/kg/day, 542 at both dosages (5 and 20 mg/kg/day))	Ang II-induced heart structural abnormalities (haematoxylin and eosin staining) ([4]; daily treatment)	Ang II-increased phosphorylation of EGFR in primary cardiomyocytes [5]	Ang II-induced phosphorylation of EGFR ([3]; PP2 10 μM pre-treatment 2 hrs)	Ang II-induced phosphorylation of c-Src [6]
COc1cc2ncnc(Nc3cccc(Cl)c3)c2cc1OC [AG1478]	345.83 ± 70.87	5.68 ± 0.62 mg/g	2.90 ± 0.26 mm	1.57 ± 0.21 mm	0.88 ± 0.03 mm	0.95 ± 0.02 mm	inhibits	inhibits	significantly inhibited	significantly inhibited	significantly blocked	significantly attenuated	markedly reversed	–	–
CC(C)(C)n1nc(-c2ccc(Cl)cc2)c2c(N)ncnc21 [PP2]	–	–	–	–	–	–	–	–	–	–	–	–	–	almost totally inhibited	almost totally inhibited
